Results published in patent publication US9089586B2, “Levocarrimycin, pharmaceutical compositions, preparation methods and uses thereof” (SHENYANG TONGLIAN GROUP CO., LTD., priority 2010, dated 2015).
≈ marks a conversion by molar mass, not a printed value.

Experiments:
Staphylococcus aureus12 = assay: In vivo pharmacodynamic: mice abdominal cavity infected, half protective dose; settings: 168 h; mice infected with Staphylococcus aureus12, challenging dose 4.8 × 10^4 CFU/0.5 ml/mouse, intragastric administration, fatality within seven days
Description: (§1) Test method: infectious bacteria liquid preparation: put the bacteria liquid stored in the −80° C. refrigerator into the room for about 1 h at room temperature, and respectively draw 0.1 ml bacteria liquid of streptococcus pneumonia, streptococcus pyogenes and enterococcus into 2 ml MH soup (add 10% inactivated horse serum); inoculate the 2 ml MH soup with 0.1 ml bacteria liquid of staphylococcus aureus according to the above method, place the liquid into 37° C. incubator for 18 h to get the original bacteria liquid, dilute the original bacteria liquid with 5% gastric mucin, take 100% lethal bacteria amount if animal gets infected as infectious bacteria liquid.
(§2) Oral administration is planned for clinical medication of levocarrimycin, thus intragastric administration is selected for levocarrimycin test. After intraperitoneal injection of 0.5 ml lethal bacterial amount to the mice' abdominal cavity, the mice appear following symptom, such as reduced activity, repose, hair became loose, and so on. Clyster with 0.2 ml for every mouse after infection 0.5-6 h, there is no adverse reaction. Observe animal fatality within seven days and calculate the half protective dose (EDO of drugs for infected mice and compare the protective effect of drugs througe Bliss order.

Staphylococcus aureus16 [1] = assay: as above; settings: 168 h; mice infected with Staphylococcus aureus16, challenging dose 5.2 × 10^3 CFU/0.5 ml/mouse, intragastric administration, fatality within seven days
Description: as §1, §2

[2] = tested on: Streptococcus pneumonia57; assay: as above; settings: 168 h; mice infected with Streptococcus pneumonia57, challenging dose 8.8 × 10^4 CFU/0.5 ml/mouse, intragastric administration, fatality within seven days
Description: as §1, §2

[3] = tested on: Streptococcus pyogenes119; assay: as above; settings: 168 h; mice infected with Streptococcus pyogenes119, challenging dose 4.9 × 10^4 CFU/0.5 ml/mouse, intragastric administration, fatality within seven days
Description: as §1, §2

Gonococcus (10) = assay: In vitro pharmacodynamics, clinical isolates, two-fold plate dilution; type: cell-based; settings: 10 clinical isolates of Gonococcus
[4] = tested on: urea plasma urealyticum (Uu); assay: In vitro anti-urea plasma urealyticum MIC in U-PPLO; type: cell-based
Description: 1. Test method: add U-PPLO 0.8 ml in sterile 12-pore cell culture plate (add 0.9 ml in bacteria liquid control pore and 1.0 ml in culture medium control pores).
3. Divide into 3 groups (100 μg/ml, 10 μg/ml and 1 μg/ml antibiotic stocksolution), Add experimental antibiotics (levocarrimycin in example 6 of the present invention, acetyl spiramycin, erythrocin and azithromycin) in each experimental pores with sterile Tip according to double degradation concentration gradient: 100 μl, 50 μl, 25 μl and 12.5 μl.
4. Blend the above pores evenly, seal the culture plate with an adhesive tape and then culture in 37° C. incubator.
5. Abserve and record the growth of Uu on 17-24 h after the test.

Streptococcus pneumonia3 = assay: MIC against the infecting test organism (Table 3); type: cell-based, Streptococcus pneumonia
[5] = tested on: Streptococcus pneumonia57; assay: MIC against the infecting test organism (Table 3); type: cell-based, Streptococcus pneumonia
[6] = tested on: Streptococcus pyogenes772; assay: MIC against the infecting test organism (Table 3); type: cell-based, Streptococcus pyogenes
[7] = tested on: Streptococcus pyogenes102; assay: MIC against the infecting test organism (Table 3); type: cell-based, Streptococcus pyogenes
[8] = tested on: Streptococcus pyogenes119; assay: MIC against the infecting test organism (Table 3); type: cell-based, Streptococcus pyogenes
Enterococcus32 = assay: MIC against the infecting test organism (Table 4); type: cell-based, Enterococcus
Staphylococcus aureus16 [9] = assay: MIC against the infecting test organism (Table 4); type: cell-based, Staphylococcus aureus
Staphylococcus aureus76 = assay: MIC against the infecting test organism (Table 4); type: cell-based, Staphylococcus aureus
[10] = tested on: chlamydia trachomatis serotype B/TW-5/OT; assay: In vitro anti-chlamydia MIC, McCoy cells, immunofluorescent staining of inclusions; type: cell-based; settings: Chlamydia trachomatis B/TW-5/OT in McCoy cells, 48 h
[11] = tested on: chlamydia trachomatis serotype D/UW-3/Cx; assay: as above; type: cell-based; settings: Chlamydia trachomatis D/UW-3/Cx in McCoy cells, 48 h
[12] = tested on: chlamydia pneumoniae CWL-029; assay: In vitro anti-chlamydia MIC, HEp-2 cells, immunofluorescent staining of inclusions; type: cell-based; settings: Chlamydia pneumoniae CWL-029 in HEp-2 cells, 72 h

| Compound | ED50 (Staphylococcus aureus12) [mg/kg] | ED50 (Staphylococcus aureus16 [1]) [mg/kg] | ED50 [2] [mg/kg] | ED50 [3] [mg/kg] | MIC (Gonococcus (10)) [µg/mL] | MIC ([4]; final MIC (24 h), determined 4 times, 10^3 CCU/ml, read-out: MIC of anti-urea plasma urealyticum strains) [µg/mL] | anti-Uu function ([4]; verbal comparison of the four antibiotics) | MIC (Streptococcus pneumonia3) [µg/mL] | MIC [5] [µg/mL] | MIC [6] [µg/mL] | MIC [7] [µg/mL] | MIC [8] [µg/mL] | MIC (Enterococcus32) [µg/mL] | MIC (Staphylococcus aureus16 [9]) [µg/mL] | MIC (Staphylococcus aureus76) [µg/mL] | MIC scope (Gonococcus (10)) [µg/mL] | Minimal inhibitory concentration (MIC) [10] [µg/mL] | Minimal inhibitory concentration (MIC) [11] [µg/mL] | Minimal inhibitory concentration (MIC) [12] [µg/mL] | MIC of anti-urea plasma urealyticum strains ([4]; final MIC (24 h), determined 4 times, 10^3 CCU/ml) [µg/mL] |
| --- | --- | --- | --- | --- | --- | --- | --- | --- | --- | --- | --- | --- | --- | --- | --- | --- | --- | --- | --- | --- |
| CC[C@H]1OC(=O)[C@H](C)[C@@H](O[C@H]2C[C@@](C)(OC)[C@@H](O)[C@H](C)O2)[C@H](C)[C@@H](O[C@@H]2O[C@H](C)C[C@H](N(C)C)[C@H]2O)[C@](C)(O)C[C@@H](C)CN(C)[C@H](C)[C@@H](O)[C@]1(C)O [Azithromycin] | 217 | 75.8 | 19.7 | 99 | 0.12 to 64 (≈ 0.16 to 85.4 µM) | 0.025 to 0.125 |  |  |  |  |  |  |  |  |  |  |  |  |  |  |
| CC[C@H]1OC(=O)[C@H](C)[C@@H](O[C@H]2C[C@@](C)(OC)[C@@H](O)[C@H](C)O2)[C@H](C)[C@@H](O[C@@H]2O[C@H](C)C[C@H](N(C)C)[C@H]2O)[C@](C)(O)C[C@@H](C)C(=O)[C@H](C)[C@@H](O)[C@]1(C)O [Erythrocin] |  |  |  |  | 0.12 to 64 (≈ 0.164 to 87.2 µM) |  | the worst |  |  |  |  |  |  |  |  |  |  |  |  |  |
| Acetyl spiramycin |  |  |  |  |  |  |  | 0.5 | 1 | 0.25 | 0.5 | 0.5 | 1 | 1 | 1 | 0.12 to 64 | 4 | 2 | 0.5 | 0.5 |
